≈ marks a conversion by molar mass, not a printed value.
System: Bacillus cereus
Test: Antibacterial activity against Bacillus cereus MTCC 8372 at 50 ug/ml after 24 hrs by disc diffusion method
Assay type: functional
Conditions: MTCC 8372, 24 h, read-out: IZ

SMILES	zone of inhibition at 50 µg/mL [mm]
CCOC(=O)c1c(-c2ccccc2)nn(-c2ccccc2)c1COc1ccc(C=O)cc1OC	4
CCOC(=O)c1c(-c2ccccc2)nn(-c2ccccc2)c1COCc1ccccc1	2

System: Bacillus cereus
Test: Antibacterial activity against Bacillus cereus MTCC 8372 at 100 ug/ml after 24 hrs by disc diffusion method
Assay type: functional
Conditions: MTCC 8372, 24 h, read-out: IZ

SMILES	zone of inhibition at 100 µg/mL [mm]
CCOC(=O)c1c(-c2ccccc2)nn(-c2ccccc2)c1COc1ccc(C=O)cc1OC	8
CCOC(=O)c1c(-c2ccccc2)nn(-c2ccccc2)c1COCc1ccccc1	8

System: Staphylococcus aureus
Test: Antibacterial activity against Staphylococcus aureus MTCC 96 at 50 ug/ml after 24 hrs by disc diffusion method
Assay type: functional
Conditions: MTCC 96, 24 h, read-out: IZ

SMILES	zone of inhibition at 50 µg/mL [mm]
CCOC(=O)c1c(-c2ccccc2)nn(-c2ccccc2)c1COc1ccc(C=O)cc1OC	2
CCOC(=O)c1c(-c2ccccc2)nn(-c2ccccc2)c1COCc1ccccc1	2

System: Staphylococcus aureus
Test: Antibacterial activity against Staphylococcus aureus MTCC 96 at 100 ug/ml after 24 hrs by disc diffusion method
Assay type: functional
Conditions: MTCC 96, 24 h, read-out: IZ

SMILES	zone of inhibition at 100 µg/mL [mm]
CCOC(=O)c1c(-c2ccccc2)nn(-c2ccccc2)c1COc1ccc(C=O)cc1OC	8
CCOC(=O)c1c(-c2ccccc2)nn(-c2ccccc2)c1COCc1ccccc1	6

System: Escherichia coli
Test: Antibacterial activity against Escherichia coli MTCC 724 at 50 ug/ml after 24 hrs by disc diffusion method
Assay type: functional
Conditions: MTCC 724, 24 h, read-out: IZ

SMILES	zone of inhibition at 50 µg/mL [mm]
CCOC(=O)c1c(-c2ccccc2)nn(-c2ccccc2)c1COc1ccc(C=O)cc1OC	3
CCOC(=O)c1c(-c2ccccc2)nn(-c2ccccc2)c1COCc1ccccc1	4

System: Escherichia coli
Test: Antibacterial activity against Escherichia coli MTCC 724 at 100 ug/ml after 24 hrs by disc diffusion method
Assay type: functional
Conditions: MTCC 724, 24 h, read-out: IZ

SMILES	zone of inhibition at 100 µg/mL [mm]
CCOC(=O)c1c(-c2ccccc2)nn(-c2ccccc2)c1COc1ccc(C=O)cc1OC	8
CCOC(=O)c1c(-c2ccccc2)nn(-c2ccccc2)c1COCc1ccccc1	6

System: Klebsiella pneumoniae
Test: Antibacterial activity against Klebsiella pneumoniae MTCC 3384 at 50 ug/ml after 24 hrs by disc diffusion method
Assay type: functional
Conditions: MTCC 3384, 24 h, read-out: IZ

SMILES	zone of inhibition at 50 µg/mL [mm]
CCOC(=O)c1c(-c2ccccc2)nn(-c2ccccc2)c1COc1ccc(C=O)cc1OC	4
CCOC(=O)c1c(-c2ccccc2)nn(-c2ccccc2)c1COCc1ccccc1	3

System: Klebsiella pneumoniae
Test: Antibacterial activity against Klebsiella pneumoniae MTCC 3384 at 100 ug/ml after 24 hrs by disc diffusion method
Assay type: functional
Conditions: MTCC 3384, 24 h, read-out: IZ

SMILES	zone of inhibition at 100 µg/mL [mm]
CCOC(=O)c1c(-c2ccccc2)nn(-c2ccccc2)c1COc1ccc(C=O)cc1OC	6
CCOC(=O)c1c(-c2ccccc2)nn(-c2ccccc2)c1COCc1ccccc1	6

System: Aspergillus flavus
Test: Antifungal activity against Aspergillus flavus MTCC 873 at 50 ug/ml after 24 hrs by disc diffusion method
Assay type: functional
Conditions: MTCC 873, 24 h, read-out: IZ

SMILES	zone of inhibition at 50 µg/mL [mm]
CCOC(=O)c1c(-c2ccccc2)nn(-c2ccccc2)c1COc1ccc(C=O)cc1OC	8
CCOC(=O)c1c(-c2ccccc2)nn(-c2ccccc2)c1COCc1ccccc1	8

System: Aspergillus flavus
Test: Antifungal activity against Aspergillus flavus MTCC 873 at 100 ug/ml after 24 hrs by disc diffusion method
Assay type: functional
Conditions: MTCC 873, 24 h, read-out: IZ

SMILES	zone of inhibition at 100 µg/mL [mm]
CCOC(=O)c1c(-c2ccccc2)nn(-c2ccccc2)c1COc1ccc(C=O)cc1OC	9
CCOC(=O)c1c(-c2ccccc2)nn(-c2ccccc2)c1COCc1ccccc1	10

System: Aspergillus niger
Test: Antifungal activity against Aspergillus niger MTCC 281 at 50 ug/ml after 24 hrs by disc diffusion method
Assay type: functional
Conditions: MTCC 281, 24 h, read-out: IZ

SMILES	zone of inhibition at 50 µg/mL [mm]
CCOC(=O)c1c(-c2ccccc2)nn(-c2ccccc2)c1COc1ccc(C=O)cc1OC	12
CCOC(=O)c1c(-c2ccccc2)nn(-c2ccccc2)c1COCc1ccccc1	12

System: Bacillus cereus
Test: Antibacterial activity against Bacillus cereus MTCC 8372 after 24 hrs by microdilution method
Assay type: functional
Conditions: MTCC 8372, 24 h

MIC [µg/mL]	SMILES
45 (≈ 98.6 µM)	CCOC(=O)c1c(-c2ccccc2)nn(-c2ccccc2)c1COc1ccc(C=O)cc1OC
50 (≈ 121 µM)	CCOC(=O)c1c(-c2ccccc2)nn(-c2ccccc2)c1COCc1ccccc1

System: Bacillus cereus
Test: Antibacterial activity against Bacillus cereus MTCC 8372 assessed as concentration required to completely destroy test microorganisms after 24 hrs
Assay type: functional
Conditions: MTCC 8372, 24 h

SMILES	MBC [µg/mL]
CCOC(=O)c1c(-c2ccccc2)nn(-c2ccccc2)c1COc1ccc(C=O)cc1OC	230 (≈ 504 µM)
CCOC(=O)c1c(-c2ccccc2)nn(-c2ccccc2)c1COCc1ccccc1	255 (≈ 618 µM)

System: Staphylococcus aureus
Test: Antibacterial activity against Staphylococcus aureus MTCC 96 after 24 hrs by microdilution method
Assay type: functional
Conditions: MTCC 96, 24 h

MIC [µg/mL]	SMILES
45 (≈ 98.6 µM)	CCOC(=O)c1c(-c2ccccc2)nn(-c2ccccc2)c1COc1ccc(C=O)cc1OC
40 (≈ 97 µM)	CCOC(=O)c1c(-c2ccccc2)nn(-c2ccccc2)c1COCc1ccccc1

System: Staphylococcus aureus
Test: Antibacterial activity against Staphylococcus aureus MTCC 96 assessed as concentration required to completely destroy test microorganisms after 24 hrs
Assay type: functional
Conditions: MTCC 96, 24 h

SMILES	MBC [µg/mL]
CCOC(=O)c1c(-c2ccccc2)nn(-c2ccccc2)c1COc1ccc(C=O)cc1OC	240 (≈ 526 µM)
CCOC(=O)c1c(-c2ccccc2)nn(-c2ccccc2)c1COCc1ccccc1	210 (≈ 509 µM)

System: Escherichia coli
Test: Antibacterial activity against Escherichia coli MTCC 724 after 24 hrs by microdilution method
Assay type: functional
Conditions: MTCC 724, 24 h

MIC [µg/mL]	SMILES
40 (≈ 87.6 µM)	CCOC(=O)c1c(-c2ccccc2)nn(-c2ccccc2)c1COc1ccc(C=O)cc1OC
45 (≈ 109 µM)	CCOC(=O)c1c(-c2ccccc2)nn(-c2ccccc2)c1COCc1ccccc1

System: Escherichia coli
Test: Antibacterial activity against Escherichia coli MTCC 724 assessed as concentration required to completely destroy test microorganisms after 24 hrs
Assay type: functional
Conditions: MTCC 724, 24 h

SMILES	MBC [µg/mL]
CCOC(=O)c1c(-c2ccccc2)nn(-c2ccccc2)c1COc1ccc(C=O)cc1OC	210 (≈ 460 µM)
CCOC(=O)c1c(-c2ccccc2)nn(-c2ccccc2)c1COCc1ccccc1	210 (≈ 509 µM)

System: Klebsiella pneumoniae
Test: Antibacterial activity against Klebsiella pneumoniae MTCC 3384 after 24 hrs by microdilution method
Assay type: functional
Conditions: MTCC 3384, 24 h

MIC [µg/mL]	SMILES
45 (≈ 98.6 µM)	CCOC(=O)c1c(-c2ccccc2)nn(-c2ccccc2)c1COc1ccc(C=O)cc1OC
45 (≈ 109 µM)	CCOC(=O)c1c(-c2ccccc2)nn(-c2ccccc2)c1COCc1ccccc1

System: Klebsiella pneumoniae
Test: Antibacterial activity against Klebsiella pneumoniae MTCC 3384 assessed as concentration required to completely destroy test microorganisms after 24 hrs
Assay type: functional
Conditions: MTCC 3384, 24 h

SMILES	MBC [µg/mL]
CCOC(=O)c1c(-c2ccccc2)nn(-c2ccccc2)c1COc1ccc(C=O)cc1OC	200 (≈ 438 µM)
CCOC(=O)c1c(-c2ccccc2)nn(-c2ccccc2)c1COCc1ccccc1	230 (≈ 558 µM)

System: Aspergillus flavus
Test: Antifungal activity against Aspergillus flavus MTCC 873 after 48 hrs by microdilution method
Assay type: functional
Conditions: MTCC 873, 48 h

MIC [µg/mL]	SMILES
40 (≈ 87.6 µM)	CCOC(=O)c1c(-c2ccccc2)nn(-c2ccccc2)c1COc1ccc(C=O)cc1OC
55 (≈ 133 µM)	CCOC(=O)c1c(-c2ccccc2)nn(-c2ccccc2)c1COCc1ccccc1

System: Aspergillus flavus
Test: Antifungal activity against Aspergillus flavus MTCC 873 assessed as concentration required to completely destroy test microorganisms after 24 hrs
Assay type: functional
Conditions: MTCC 873, 24 h

SMILES	MFC [µg/mL]
CCOC(=O)c1c(-c2ccccc2)nn(-c2ccccc2)c1COc1ccc(C=O)cc1OC	250 (≈ 548 µM)
CCOC(=O)c1c(-c2ccccc2)nn(-c2ccccc2)c1COCc1ccccc1	270 (≈ 655 µM)

System: Aspergillus niger
Test: Antifungal activity against Aspergillus niger MTCC 281 after 48 hrs by microdilution method
Assay type: functional
Conditions: MTCC 281, 48 h

MIC [µg/mL]	SMILES
40 (≈ 87.6 µM)	CCOC(=O)c1c(-c2ccccc2)nn(-c2ccccc2)c1COc1ccc(C=O)cc1OC
45 (≈ 109 µM)	CCOC(=O)c1c(-c2ccccc2)nn(-c2ccccc2)c1COCc1ccccc1

System: Aspergillus niger
Test: Antifungal activity against Aspergillus niger MTCC 281 assessed as concentration required to completely destroy test microorganisms after 24 hrs
Assay type: functional
Conditions: MTCC 281, 24 h

SMILES	MFC [µg/mL]
CCOC(=O)c1c(-c2ccccc2)nn(-c2ccccc2)c1COc1ccc(C=O)cc1OC	205 (≈ 449 µM)
CCOC(=O)c1c(-c2ccccc2)nn(-c2ccccc2)c1COCc1ccccc1	265 (≈ 642 µM)

System: Aspergillus niger
Test: Antifungal activity against Aspergillus niger MTCC 281 at 100 ug/ml after 24 hrs by disc diffusion method
Assay type: functional
Conditions: MTCC 281, 24 h, read-out: IZ

SMILES	zone of inhibition at 100 µg/mL [mm]
CCOC(=O)c1c(-c2ccccc2)nn(-c2ccccc2)c1COc1ccc(C=O)cc1OC	10
CCOC(=O)c1c(-c2ccccc2)nn(-c2ccccc2)c1COCc1ccccc1	8

Target: T1, Alpha amylase (Homo sapiens, UniProt P0DUB6)
T1 sequence (P0DUB6 whole entry): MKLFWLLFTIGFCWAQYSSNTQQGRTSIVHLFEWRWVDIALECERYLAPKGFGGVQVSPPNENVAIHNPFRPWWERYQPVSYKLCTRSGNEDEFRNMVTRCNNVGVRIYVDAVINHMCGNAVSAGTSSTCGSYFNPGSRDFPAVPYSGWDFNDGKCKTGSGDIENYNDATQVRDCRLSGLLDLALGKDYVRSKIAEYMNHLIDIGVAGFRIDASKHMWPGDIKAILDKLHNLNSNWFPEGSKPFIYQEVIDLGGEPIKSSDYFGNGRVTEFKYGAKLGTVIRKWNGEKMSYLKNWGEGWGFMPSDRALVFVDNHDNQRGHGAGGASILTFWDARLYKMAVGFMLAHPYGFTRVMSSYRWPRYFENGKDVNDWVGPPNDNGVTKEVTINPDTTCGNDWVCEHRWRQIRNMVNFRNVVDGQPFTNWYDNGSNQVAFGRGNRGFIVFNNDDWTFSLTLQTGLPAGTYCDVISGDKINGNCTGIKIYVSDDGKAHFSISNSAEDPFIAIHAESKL
Test: Inhibition of alpha-amylase (unknown origin) using starch as substrate after 30 mins by spectrophotometer analysis
Conditions: not given

IC50 [µg/mL]	SMILES
60 (≈ 131 µM)	CCOC(=O)c1c(-c2ccccc2)nn(-c2ccccc2)c1COc1ccc(C=O)cc1OC
45 (≈ 109 µM)	CCOC(=O)c1c(-c2ccccc2)nn(-c2ccccc2)c1COCc1ccccc1

Target: not listed separately
Test: Inhibition of alpha-glucosidase (unknown origin) using p-nitrophenol glycoside as substrate after 30 mins by colorimetric analysis
Parameters: species or system Homo sapiens
Conditions: not given

IC50 [µg/mL]	SMILES
70 (≈ 153 µM)	CCOC(=O)c1c(-c2ccccc2)nn(-c2ccccc2)c1COc1ccc(C=O)cc1OC
45 (≈ 109 µM)	CCOC(=O)c1c(-c2ccccc2)nn(-c2ccccc2)c1COCc1ccccc1
